Measurements as given in patent publication US12496289B2, “Methods of increasing magnesium bioavailability and absorption” (Balchem Corporation, priority 2020, dated 2025).

How the values were obtained:
Caco-2 cells [1] = test: Caco-2 cell viability with ascorbic acid (fluorescent probes); assay type: cell-based; conditions: 0, 5, 25, or 50 mM ascorbic acid for 240 min; cells propagated 14 days
Protocol: FIG. 5 depicts a graph illustrating the viability over time of cells incubated with various solutions. Caco-2 cells were propagated in T-75 tissue culture flasks for 14 days. The cells were then incubated with either 0, 5, 25, or 50 mM ascorbic acid for 240 min. Fluorescent probes were used to determine viability.
Experiments were performed to test the impact of various ascorbic acid concentrations on cell viability. Caco-2 cells were propagated in T-75 tissue culture flasks for 14 days. The cells were then incubated with either 0, 5, 25, or 50 mM ascorbic acid for 240 min. Fluorescent probes were used to determine viability.

Caco-2 cells [2] = test: Caco-2 in vitro magnesium transport assay; conditions: for Magnesium transport with increasing treatment concentration: 0, 5, 10, 15, 20, and 25 mg Mg (ascorbate or chloride)
Protocol: Caco-2 cells were used to model in vitro magnesium absorption of intestinal cells. […] Six different solutions, with magnesium and varying ratios of ascorbate were tested. Each solution comprised 20 mM of magnesium. Cells were exposed to one of the six solutions for 4 hours, then the basal media was analyzed for magnesium, using a colorimetric test.
Various magnesium solutions were tested to determine their impact on magnesium transport: magnesium ascorbate, magnesium bisglycinate, magnesium orotate, magnesium threonate, and magnesium malate (trihydrate and hexahydrate; abbreviated MgM3H20 or MgM6H20 respectively in FIG. 2). […] (see FIG. 2)
Six different treatment concentrations were tested: 0, 5, 10, 15, 20, and 25 mg Mg (ascorbate or chloride).

Row | Molecule | Cell viability (Caco-2 cells [1]) | Magnesium transport with increasing treatment concentration (Caco-2 cells [2]; FIG. 3) | Magnesium transport compared with magnesium chloride at any given concentration tested (Caco-2 cells [2]; 0, 5, 10, 15, 20, and 25 mg Mg, FIG. 3) | Magnesium transport rate compared with other magnesium solutions (Caco-2 cells [2]; vs magnesium bisglycinate, orotate, threonate, malate (trihydrate and hexahydrate), FIG. 2)
1 | O=C1O[C@H]([C@@H](O)CO)C(O)=C1O [ascorbic acid] | no conclusive evidence that ascorbic acid kills the cells | – | – | –
2 | [Cl-].[Cl-].[Mg+2] [magnesium chloride, reference compound] | – | increased magnesium transport, in a linear fashion | – | –
3 | magnesium ascorbate | – | significant jump in magnesium transport between the 10 mM treatment and the 15 mM treatment | greater magnesium transport than magnesium chloride | statistically significant higher transport rate than any other magnesium solution tested
